Measured values from patent US10105373B2, “Fused triterpene compounds and uses thereof” (PIRAMAL ENTERPRISES LIMITED, priority 2014, dated 2018).

molecular target: T1, RORγt receptor protein (Homo sapiens, UniProt P51449); assay: General RORγ binding assay (radioligand binding, [3H]25-hydroxy cholesterol displacement); conditions: displacement of [3H]25-hydroxy cholesterol from 200 ng RORγt receptor protein, 1 h room temperature; test concentrations 0.01-3 μM, concentration for the % not stated
T1 sequence (P51449 1-497 isoform P51449-2): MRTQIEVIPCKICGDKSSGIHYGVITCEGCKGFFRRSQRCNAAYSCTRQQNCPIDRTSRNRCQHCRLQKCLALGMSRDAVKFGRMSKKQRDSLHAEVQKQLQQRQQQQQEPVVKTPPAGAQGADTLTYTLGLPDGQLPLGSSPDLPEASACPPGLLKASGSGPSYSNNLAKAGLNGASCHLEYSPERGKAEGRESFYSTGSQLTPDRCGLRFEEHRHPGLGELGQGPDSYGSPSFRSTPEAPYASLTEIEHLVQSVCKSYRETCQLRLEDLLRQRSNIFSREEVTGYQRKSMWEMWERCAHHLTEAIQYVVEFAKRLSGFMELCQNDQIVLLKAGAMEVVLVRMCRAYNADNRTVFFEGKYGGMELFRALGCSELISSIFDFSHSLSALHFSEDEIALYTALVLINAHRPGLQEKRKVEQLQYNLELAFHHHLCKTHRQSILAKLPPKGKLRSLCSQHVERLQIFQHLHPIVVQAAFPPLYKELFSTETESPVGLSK
Description: General RORγ Binding Assay:
The RORγ binding of compounds of the present invention as described herein to RORγ was measured. For the radioligand binding assay, various concentrations of the test compounds were prepared (0.01 μM, 0.03 μM, 0.1 μM, 0.3 μM, 1 μM and 3 μM) and the samples were incubated with 200 ng of RORγt receptor protein in the presence of the [^3H]25-hydroxy cholesterol and the mixture was incubated at room temperature for 1 h. An extent of displacement of the radioligand was measured after harvesting the reaction mixture on filter plate reader using TopCount (Perkin Elmer) for radioactivity. The compounds of present invention were tested for RORγ binding using the above assay procedure and the results obtained are given in the below Table 1.

Row | Structure (SMILES) | ROR binding (%)
1 | Cc1nc(O)c2c(n1)C(C)(C)[C@@H]1CC[C@]3(C)[C@H](CC=C4[C@@H]5[C@@H](C)[C@H](C)CC[C@]5(C(=O)O)CC[C@]43C)[C@@]1(C)C2 [Example 31, (1S,2R,4aS,6aS,6bR,8aR,14aR,14bR,16bS)-13-hydroxy-1,2,6a,6b,9,9,11,14a-octamethyl-1,2,3,4,4a,5,6,6a,6b,7,8,8a,9,14,14a,14b,15,16b-octadecahydrochryseno[1,2-g]quinazoline-4a-carboxylic acid] | ++ (‘++’ corresponds to 50 to 70% binding of the compounds of present invention)
2 | C[C@H]1[C@H](C)CC[C@]2(C(=O)O)CC[C@]3(C)C(=CC[C@@H]4[C@@]5(C)Cc6cc(C(N)=O)cnc6C(C)(C)[C@@H]5CC[C@]43C)[C@H]12 [Example 94, (1S,2R,4aS,6aS,6bR,8aR,14aR,14bR,16bS)-12-carbamoyl-1,2,3,4,4a,5,6,6a,6b,7,8,8a,9,14,14a,14b,15,16b-octadecahydro-1,2,6a,6b,9,9,14a-heptamethylchryseno[1,2-g]quinoline-4a-carboxylic acid] | ++ (‘++’ corresponds to 50 to 70% binding of the compounds of present invention)
3 | C[C@H]1[C@H](C)CC[C@]2(C(=O)O)CC[C@]3(C)C(=CC[C@@H]4[C@@]5(C)Cc6cncnc6C(C)(C)[C@@H]5CC[C@]43C)[C@H]12 [Example 6, (1S,2R,4aS,6aS,6bR,8aR,14aR,14bR,16bS)-1,2,6a,6b,9,9,14a-heptamethyl-1,2,3,4,4a,5,6,6a,6b,7,8,8a,9,14,14a,14b,15,16b-octadecahydrochryseno[1,2-g]quinazoline-4a-carboxylic acid] | +++ (‘+++’ corresponds to more than 80% binding of the compounds of present invention)
4 | C[C@H]1[C@H](C)CC[C@]2(C(=O)O)CC[C@]3(C)C(=CC[C@@H]4[C@@]5(C)Cc6c(N7CCOCC7)ncnc6C(C)(C)[C@@H]5CC[C@]43C)[C@H]12 [Example 14, (1S,2R,4aS,6aS,6bR,8aR,14aR,14bR,16bS)-1,2,6a,6b,9,9,14a-heptamethyl-13-morpholino-1,2,3,4,4a,5,6,6a,6b,7,8,8a,9,14,14a,14b,15,16b-octadecahydrochryseno[1,2-g]quinazoline-4a-carboxylic acid] | ++ (‘++’ corresponds to 50 to 70% binding of the compounds of present invention)
5 | CCS(=O)(=O)c1ncc2c(n1)C(C)(C)[C@@H]1CC[C@]3(C)[C@H](CC=C4C5[C@@H](C)[C@H](C)CC[C@]5(C(=O)O)CC[C@]43C)[C@@]1(C)C2 (stereo partly drawn) [Example 78, (1S,2R,4aS,6aS,6bR,8aR,14aR,14bR)-11-(ethylsulfonyl)-1,2,6a,6b,9,9,14a-heptamethyl-1,2,3,4,4a,5,6,6a,6b,7,8,8a,9,14,14a,14b,15,16b-octadecahydrochryseno[1,2-g]quinazoline-4a-carboxylic acid] | +++ (‘+++’ corresponds to more than 80% binding of the compounds of present invention)
6 | Cc1nc(N2CCOCC2)c2c(n1)C(C)(C)[C@@H]1CC[C@]3(C)[C@H](CC=C4[C@@H]5[C@@H](C)[C@H](C)CC[C@]5(C(=O)O)CC[C@]43C)[C@@]1(C)C2 [Example 55, (1S,2R,4aS,6aS,6bR,8aR,14aR,14bR,16bS)-1,2,6a,6b,9,9,11,14a-octamethyl-13-morpholino-1,2,3,4,4a,5,6,6a,6b,7,8,8a,9,14,14a,14b,15,16b-octadecahydrochryseno[1,2-g]quinazoline-4a-carboxylic acid] | ++ (‘++’ corresponds to 50 to 70% binding of the compounds of present invention)
7 | C[C@H]1[C@H](C)CC[C@]2(C(=O)O)CC[C@]3(C)C(=CC[C@@H]4[C@@]5(C)Cc6cnc(S(C)(=O)=O)nc6C(C)(C)[C@@H]5CC[C@]43C)[C@H]12 [Example 81, (1S,2R,4aS,6aS,6bR,8aR,14aR,14bR,16bS)-1,2,6a,6b,9,9,14a-heptamethyl-11-(methylsulfonyl)-1,2,3,4,4a,5,6,6a,6b,7,8,8a,9,14,14a,14b,15,16b-octadecahydrochryseno [1,2-g]quinazoline-4a-carboxylic acid] | +++ (‘+++’ corresponds to more than 80% binding of the compounds of present invention)
8 | Cc1nc(N2CCCC2)c2c(n1)C(C)(C)[C@@H]1CC[C@]3(C)[C@H](CC=C4[C@@H]5[C@@H](C)[C@H](C)CC[C@]5(C(=O)O)CC[C@]43C)[C@@]1(C)C2 [Example 45, (1S,2R,4aS,6aS,6bR,8aR,14aR,14bR,16bS)-1,2,6a,6b,9,9,11,14a-octamethyl-13-(pyrrolidin-1-yl)-1,2,3,4,4a,5,6,6a,6b,7,8,8a,9,14,14a,14b,15,16b-octadecahydrochryseno[1,2-g]quinazoline-4a-carboxylic acid] | ++ (‘++’ corresponds to 50 to 70% binding of the compounds of present invention)
9 | Cc1nc(N(C)C)c2c(n1)C(C)(C)[C@@H]1CC[C@]3(C)[C@H](CC=C4[C@@H]5[C@@H](C)[C@H](C)CC[C@]5(C(=O)O)CC[C@]43C)[C@@]1(C)C2 [Example 38, (1S,2R,4aS,6aS,6bR,8aR,14aR,14bR,16bS)-13-(dimethylamino)-1,2,6a,6b,9,9,11,14a-octamethyl-1,2,3,4,4a,5,6,6a,6b,7,8,8a,9,14,14a,14b,15,16b-octadecahydrochryseno[1,2-g]quinazoline-4a-carboxylic acid] | ++ (‘++’ corresponds to 50 to 70% binding of the compounds of present invention)
10 | C[C@H]1[C@H](C)CC[C@]2(C(=O)O)CC[C@]3(C)C(=CC[C@@H]4[C@@]5(C)Cc6c(N(C)C)ncnc6C(C)(C)[C@@H]5CC[C@]43C)[C@H]12 [Example 27, (1S,2R,4aS,6aS,6bR,8aR,14aR,14bR,16bS)-13-(dimethylamino)-1,2,6a,6b,9,9,14a-hepta methyl-1,2,3,4,4a,5,6,6a,6b,7,8,8a,9,14,14a,14b,15,16b-octadecahydrochryseno[1,2-g]quinazoline-4a-carboxylic acid] | ++ (‘++’ corresponds to 50 to 70% binding of the compounds of present invention)
11 | COc1ncnc2c1C[C@]1(C)[C@H]3CC=C4[C@@H]5[C@@H](C)[C@H](C)CC[C@]5(C(=O)O)CC[C@@]4(C)[C@]3(C)CC[C@H]1C2(C)C [Example 23, (1S,2R,4aS,6aS,6bR,8aR,14aR,14bR,16bS)-13-methoxy-1,2,6a,6b,9,9,14a-heptamethyl-1,2,3,4,4a,5,6,6a,6b,7,8,8a,9,14,14a,14b,15,16b-octadecahydrochryseno[1,2-g]quinazoline-4a-carboxylic acid] | ++ (‘++’ corresponds to 50 to 70% binding of the compounds of present invention)
12 | C[C@H]1[C@H](C)CC[C@]2(C(=O)O)CC[C@]3(C)C(=CC[C@@H]4[C@@]5(C)Cc6cccnc6C(C)(C)[C@@H]5CC[C@]43C)[C@H]12 [Example 84, (1S,2R,4aS,6aS,6bR,8aR,14aR,14bR,16bS)-1,2,3,4,4a,5,6,6a,6b,7,8,8a,9,14,14a,14b,15,16b-octadecahydro-1,2,6a, 6b,9,9,14a-heptamethylchryseno[1,2-g]quinoline-4a-carboxylic acid] | ++ (‘++’ corresponds to 50 to 70% binding of the compounds of present invention)
13 | Cc1ncc2c(n1)C(C)(C)[C@@H]1CC[C@]3(C)[C@H](CC=C4[C@@H]5[C@@H](C)[C@H](C)CC[C@]5(C(=O)O)CC[C@]43C)[C@@]1(C)C2 [Example 59, (1S,2R,4aS,6aS,6bR,8aR,14aR,14bR,16bS)-1,2,6a,6b,9,9,11,14a-octamethyl-1,2,3,4,4a,5,6,6a,6b,7,8,8a,9,14,14a,14b,15,16b-octadecahydrochryseno[1,2-g]quinazoline-4a-carboxylic acid] | +++ (‘+++’ corresponds to more than 80% binding of the compounds of present invention)
